How the values were obtained:
[1] = Rat PK (pharmacokinetics after iv and po administration); assay type: in vivo; details: male, SD, plasma; for Vd: read-out: Vss; for bioavailability: po 5 vs iv 2 (g/kg [sic]; mg/kg in method), read-out: F (bioavailability)
Text: Materials used include Propranolol (internal standard), methyl alcohol, ammonium acetate, K2EDTA (potassium ethylenediaminetetraacetate), methane acid, acetonitrile, MTBE (methyl tert-butyl ether), Cremophor EL (polyoxyethylated castor oil), KolliphorHS 15 (polyethylene glycol 12-hydroxystearate), DMSO (dimethylsulfoxide), PEG400 (polyethylene glycol 400) and SD rat (male, 180-220 g, 7-8 weeks old, purchased from Hunan Slack King of Laboratory Animal Co., Ltd.), all of which are commercially available.
Each test compound prepared in above examples was completely dissolved in a mixture of 5% DMSO, 5% KolliphorHS 15 and 90% saline.
(1) The test sample stock solution was prepared by dissolving an accurately weighed test sample in DMSO followed by dilution to the concentration of 1 mg/mL with acetonitrile. The stock solution was stored under the condition of −20° C. for later use.
(2) Internal standard solution was prepared by diluting a certain amount of the Propranolol stock solution in the concentration of 1 mg/mL to 100 ng/mL with water.
Samples treated with liquid-liquid extraction and chromatographic separation were analyzed by triple quadrupole tandem mass spectrometer in multiple reaction monitoring (MRM) mode for quantitative analysis.
Pretreatment of plasma sample was performed according to the following procedures: (1) plasma sample (30 μL) was precisely measured, and internal standard (250 μL) was then added to the plasma sample which was then mixed by vortexing; (2) the sample was extracted once with 1 mL of MTBE and then centrifuged at 13000 rpm for 2 minutes at 4° C.; (3) supernatant (800 μL) was aspirated and dried with 96 holes nitrogen gas blowing; (4) the residue was dissolved with 150 μL of a mixture of methanol and water (v/v=1/1) and then mixed by vortexing; and (5) sampling: sample quantity was 8 μL.
Preparation of standard sample was performed according to the following procedures: (1) a pre-determined amount of the compound stock solution was precisely measured, and then was diluted to standard series of solution with acetonitrile; (2) each of the standard solution (20 μL) prepared above was precisely measured and to each was added 180 μL of blank plasma; (3) each sample was mixed by vortexing to obtain series of standard samples in which the plasma concentration was 3, 5, 10, 30, 100, 300, 1000, 3000, 5000 or 10000 ng/mL; and (4) standard curve was established.
The content of each test compound in rat plasma after administration was determined by LC/MS/MS.
Noncompartmental analysis to calculate pharmacokinetic parameters was performed with WinNonlin 6.1 software.

[2] = target: EGFR T790M (human epidermal growth factor receptor T790M mutation) (Homo sapiens (Human), UniProt P00533, T790M); experiment: In vitro kinase inhibitory activity, EGFR T790M; assay type: biochemical
Sequence of EGFR T790M (human epidermal growth factor receptor T790M mutation) (P00533 25-1210 T790M): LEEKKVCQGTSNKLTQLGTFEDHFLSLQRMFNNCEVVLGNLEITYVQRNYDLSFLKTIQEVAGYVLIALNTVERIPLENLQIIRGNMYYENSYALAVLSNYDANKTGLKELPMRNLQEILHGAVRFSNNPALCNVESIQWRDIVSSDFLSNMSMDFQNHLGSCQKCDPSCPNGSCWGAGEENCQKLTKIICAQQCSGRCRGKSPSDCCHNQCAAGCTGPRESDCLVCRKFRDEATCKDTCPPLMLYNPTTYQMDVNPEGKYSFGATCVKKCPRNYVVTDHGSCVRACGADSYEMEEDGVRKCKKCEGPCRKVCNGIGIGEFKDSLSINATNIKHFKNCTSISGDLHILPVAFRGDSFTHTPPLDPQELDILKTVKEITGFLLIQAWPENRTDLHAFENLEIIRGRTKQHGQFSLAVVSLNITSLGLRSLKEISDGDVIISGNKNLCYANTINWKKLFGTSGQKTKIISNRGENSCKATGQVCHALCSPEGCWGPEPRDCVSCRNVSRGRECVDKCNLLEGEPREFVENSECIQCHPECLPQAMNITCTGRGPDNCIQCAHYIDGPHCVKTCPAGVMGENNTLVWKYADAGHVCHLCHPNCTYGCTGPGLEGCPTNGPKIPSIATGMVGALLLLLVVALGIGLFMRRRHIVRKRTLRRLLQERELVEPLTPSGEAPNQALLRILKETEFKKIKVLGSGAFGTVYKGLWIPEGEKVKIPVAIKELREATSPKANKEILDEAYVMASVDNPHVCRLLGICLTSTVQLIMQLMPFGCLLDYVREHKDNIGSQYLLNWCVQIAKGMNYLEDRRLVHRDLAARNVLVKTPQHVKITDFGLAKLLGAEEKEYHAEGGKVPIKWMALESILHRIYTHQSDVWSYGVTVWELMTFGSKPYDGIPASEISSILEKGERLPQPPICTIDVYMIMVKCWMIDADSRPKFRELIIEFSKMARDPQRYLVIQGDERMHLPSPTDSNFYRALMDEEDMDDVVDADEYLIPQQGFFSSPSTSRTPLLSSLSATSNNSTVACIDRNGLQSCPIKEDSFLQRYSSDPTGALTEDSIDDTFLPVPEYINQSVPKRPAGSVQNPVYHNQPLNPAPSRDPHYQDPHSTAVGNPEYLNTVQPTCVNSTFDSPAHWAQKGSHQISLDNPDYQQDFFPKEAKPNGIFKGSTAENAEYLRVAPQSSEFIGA
Procedure: (§1) Stop buffer was prepared from 100 mM HEPES, pH 7.5, 0.015% Brij-35, 0.2% Coating Reagent #3, and 50 mM EDTA.
(§2) Kinase reaction was performed according to the following procedures: (1) 2.5× kinase solution was prepared by adding kinase into 1× kinase base buffer; (2) 2.5× peptide solution was prepared by adding FAM-labeled peptide and ATP into 1× kinase base buffer; (3) 2.5× kinase solution (10 μL) was added to each well of the 384-well assay plate containing 5 μL of compound in 10% DMSO and then the assay plate was incubated at room temperature for 10 minutes; (4) 2.5× peptide solution (10 μL) was added to each well of the 384-well assay plate; and (5) stop buffer (25 μL) was added to stop the kinase reaction after incubation at 28° C. for a specified period of time.
(§3) Multifunctional microplate reader (BMG LABTECH, PHER Astar FS) with a 320 nm excitation wavelength was used to read and collected the data of by absorbing light at […], which was converted from the rate of 665 signal/620 signal.
(§4) Conversion data were copied, and then converted to inhibition values with the following formula: percent inhibition=(max−conversion)/(max−min)*100 where “max” stands for the DMSO control value, “conversion” stands for the sample value and “[…]” stands for the no-kinase control value. The data were fitted in XLfit to obtain IC50 values.

[3] = target: HER2 (human epidermal growth factor receptor 2) (Homo sapiens (Human), UniProt P04626); experiment: In vitro kinase inhibitory activity, HER-2; assay type: biochemical
Sequence of HER2 (human epidermal growth factor receptor 2) (P04626 23-1255): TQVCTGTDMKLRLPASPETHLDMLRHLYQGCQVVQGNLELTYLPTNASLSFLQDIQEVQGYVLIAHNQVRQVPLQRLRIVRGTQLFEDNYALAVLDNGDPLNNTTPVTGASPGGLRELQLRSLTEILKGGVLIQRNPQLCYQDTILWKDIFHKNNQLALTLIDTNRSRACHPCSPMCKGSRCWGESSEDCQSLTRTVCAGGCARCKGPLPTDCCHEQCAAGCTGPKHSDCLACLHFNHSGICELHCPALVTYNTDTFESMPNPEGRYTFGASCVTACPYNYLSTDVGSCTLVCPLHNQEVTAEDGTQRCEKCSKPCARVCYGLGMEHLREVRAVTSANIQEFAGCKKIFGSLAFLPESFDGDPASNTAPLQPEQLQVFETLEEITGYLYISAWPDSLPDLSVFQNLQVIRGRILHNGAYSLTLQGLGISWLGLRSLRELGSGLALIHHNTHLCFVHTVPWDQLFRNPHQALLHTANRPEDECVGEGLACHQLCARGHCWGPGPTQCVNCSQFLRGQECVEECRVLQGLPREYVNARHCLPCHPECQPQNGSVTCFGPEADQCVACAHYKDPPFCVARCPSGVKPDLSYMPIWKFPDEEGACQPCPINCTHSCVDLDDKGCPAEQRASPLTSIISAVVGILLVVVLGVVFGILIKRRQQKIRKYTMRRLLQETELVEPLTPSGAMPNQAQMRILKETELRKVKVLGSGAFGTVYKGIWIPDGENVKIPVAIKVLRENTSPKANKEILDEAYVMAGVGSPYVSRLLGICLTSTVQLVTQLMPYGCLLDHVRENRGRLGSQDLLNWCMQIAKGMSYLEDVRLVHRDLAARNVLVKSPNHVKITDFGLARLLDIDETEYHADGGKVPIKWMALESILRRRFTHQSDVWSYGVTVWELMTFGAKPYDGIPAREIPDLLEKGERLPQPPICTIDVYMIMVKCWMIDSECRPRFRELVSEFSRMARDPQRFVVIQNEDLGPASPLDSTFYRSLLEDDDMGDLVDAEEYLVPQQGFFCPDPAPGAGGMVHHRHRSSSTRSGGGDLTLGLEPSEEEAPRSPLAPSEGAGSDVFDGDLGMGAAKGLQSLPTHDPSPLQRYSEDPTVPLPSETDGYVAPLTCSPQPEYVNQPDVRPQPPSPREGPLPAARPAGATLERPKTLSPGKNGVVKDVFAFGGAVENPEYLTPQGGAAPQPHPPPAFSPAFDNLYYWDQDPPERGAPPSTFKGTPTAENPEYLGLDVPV
Procedure: as §1
as §2, with “time. […]” for “time.”
as §4

[4] = target: EGFR (human epidermal growth factor receptor) (Homo sapiens (Human), UniProt P00533); experiment: In vitro kinase inhibitory activity, EGFR; assay type: biochemical
Sequence of EGFR (human epidermal growth factor receptor) (P00533 25-1210): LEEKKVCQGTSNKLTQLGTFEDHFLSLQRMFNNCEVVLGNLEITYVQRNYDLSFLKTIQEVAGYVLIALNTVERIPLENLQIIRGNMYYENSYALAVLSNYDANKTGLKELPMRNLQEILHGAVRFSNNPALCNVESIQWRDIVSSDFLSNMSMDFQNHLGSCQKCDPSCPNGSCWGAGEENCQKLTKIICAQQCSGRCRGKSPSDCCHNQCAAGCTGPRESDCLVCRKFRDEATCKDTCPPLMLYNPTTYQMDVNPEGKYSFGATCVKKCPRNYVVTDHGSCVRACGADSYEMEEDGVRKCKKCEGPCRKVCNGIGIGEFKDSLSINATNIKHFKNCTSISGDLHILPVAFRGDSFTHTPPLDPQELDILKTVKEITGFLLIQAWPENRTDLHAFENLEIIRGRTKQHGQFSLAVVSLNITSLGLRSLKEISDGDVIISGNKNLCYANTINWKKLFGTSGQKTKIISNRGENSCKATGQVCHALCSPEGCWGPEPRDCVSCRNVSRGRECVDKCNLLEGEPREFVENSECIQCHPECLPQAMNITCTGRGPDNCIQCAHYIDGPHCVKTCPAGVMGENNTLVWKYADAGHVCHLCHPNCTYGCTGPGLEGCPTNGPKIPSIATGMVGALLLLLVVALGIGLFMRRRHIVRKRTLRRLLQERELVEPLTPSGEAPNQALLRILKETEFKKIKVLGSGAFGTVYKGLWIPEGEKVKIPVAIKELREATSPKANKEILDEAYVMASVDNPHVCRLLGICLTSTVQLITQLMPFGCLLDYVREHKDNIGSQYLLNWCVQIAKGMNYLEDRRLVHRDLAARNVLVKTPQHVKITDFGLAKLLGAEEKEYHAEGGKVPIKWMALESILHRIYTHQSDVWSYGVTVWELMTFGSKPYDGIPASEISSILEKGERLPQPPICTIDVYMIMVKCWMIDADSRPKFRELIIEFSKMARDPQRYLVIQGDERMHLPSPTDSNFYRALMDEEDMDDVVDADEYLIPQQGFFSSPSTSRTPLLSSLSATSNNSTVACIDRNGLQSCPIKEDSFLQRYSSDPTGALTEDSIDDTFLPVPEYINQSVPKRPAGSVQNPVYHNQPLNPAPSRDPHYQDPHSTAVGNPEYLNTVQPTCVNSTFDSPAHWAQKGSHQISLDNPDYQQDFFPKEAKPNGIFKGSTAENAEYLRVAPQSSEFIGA
Procedure: as §1, §2, §3, §4

[5] = iv(2 g/kg) [sic], method says 2 mg/kg
[6] = po(5 g/kg) [sic], method says 5 mg/kg

## CCOc1cc2ncnc(Nc3ccc(OCc4ccccn4)c(Cl)c3)c2cc1NC(=O)/C=C/CN1C[C@@H]2OCCO[C@@H]2C1 [Example 24, (E)-N-(4-((3-Chloro-4-(pyridin-2-ylmethoxy)phenyl)amino)-7-ethoxyquinazolin-6-yl)-4-((4aR,7aS)-tetrahydro-2H-[1,4]dioxino[2,3-c]pyrrol-6(3H)-yl)but-2-enamide]
[1]; [5]
  AUC(0-t): 10500 ng·h/mL
  Cmax: 2930 ng/mL
  half-life: 3.59 h
  Vd: 0.79 L/kg
[1]
  bioavailability: 87.1%
[1]; [6]
  AUC(0-t): 22900 ng·h/mL
  Cmax: 2770 ng/mL
  half-life: 3.49 h
[2]
  IC50: 4.2 nM
[3]
  IC50: 1.7 nM
[4]
  IC50: 18.4 nM

## O=C(/C=C/CN1C[C@@H]2OCCO[C@@H]2C1)Nc1cc2c(Nc3ccc(OCc4ccccn4)c(Cl)c3)ncnc2cc1O[C@H]1CCOC1 [Example 25, (E)-N-(4-((3-Chloro-4-(pyridin-2-ylmethoxy)phenyl)amino)-7-(((S)-tetrahydrofuran-3-yl)oxy)quinazolin-6-yl)-4-((4aR,7aS)-tetrahydro-2H-[1,4]dioxino[2,3-c]pyrrol-6(3H)-yl)but-2-enamide]
[1]; [5]
  AUC(0-t): 4530 ng·h/mL
  Cmax: 4110 ng/mL
  half-life: 1.42 h
  Vd: 0.65 L/kg
[1]
  bioavailability: 5.94%
[1]; [6]
  AUC(0-t): 474 ng·h/mL
  Cmax: 73 ng/mL
  half-life: 4.42 h
[2]
  IC50: 5.9 nM
[3]
  IC50: 2.5 nM
[4]
  IC50: 8.6 nM

## COc1cc2ncnc(Nc3ccc4c(cnn4Cc4cccc(F)c4)c3)c2cc1NC(=O)/C=C/CN1C[C@@H]2OCCO[C@@H]2C1 [Example 27, (E)-N-(4-((1-(3-Fluorobenzyl)-1H-indazol-5-yl)amino)-7-methoxyquinazolin-6-yl)-4-((4aR,7aS)-tetra hydro-2H-[1,4]dioxin[2,3-c]pyrrol-6(3H)-yl)but-2-enamide]
[1]; [5]
  AUC(0-t): 1190 ng·h/mL
  Cmax: 923 ng/mL
  half-life: 1.97 h
  Vd: 3.65 L/kg
[1]
  bioavailability: 10.8%
[1]; [6]
  AUC(0-t): 303 ng·h/mL
  Cmax: 67.8 ng/mL
  half-life: 2.33 h
[2]
  IC50: 22.9 nM
[3]
  IC50: 2.2 nM
[4]
  IC50: 7.9 nM

## CCOc1cc2ncnc(Nc3ccc4c(cnn4Cc4cccc(F)c4)c3)c2cc1NC(=O)/C=C/CN1C[C@@H]2OCCO[C@@H]2C1 [Example 28, (E)-N-(7-Ethoxy-4-((1-(3-fluorobenzyl)-1H-indazol-5-yl)amino)quinazolin-6-yl)-4-((4aR,7aS)-tetrahydro-2H-[1,4]dioxino[2,3-c]pyrrol-6(3H)-yl)but-2-enamide]
[1]; [5]
  AUC(0-t): 692 ng·h/mL
  Cmax: 450 ng/mL
  half-life: 1.99 h
  Vd: 6.66 L/kg
[1]
  bioavailability: 41.5%
[1]; [6]
  AUC(0-t): 721 ng·h/mL
  Cmax: 147 ng/mL
  half-life: 1.41 h
[2]
  IC50: 14.5 nM
[3]
  IC50: 1.6 nM
[4]
  IC50: 40.1 nM

## COc1cc2ncnc(Nc3ccc(Cl)c(Cl)c3F)c2cc1NC(=O)/C=C/CN1C[C@@H]2OCCO[C@@H]2C1 [Example 31, (E)-N-(4-((3,4-Dichloro-2-fluorophenyl)amino)-7-methoxyquinazolin-6-yl)-4-((4aR,7aS)-tetrahydro-2H-[1,4]dioxino[2,3-c]pyrrol-6(3H)-yl)but-2-enamide]
[1]; [5]
  AUC(0-t): 2990 ng·h/mL
  Cmax: 1210 ng/mL
  half-life: 3.66 h
  Vd: 2.58 L/kg
[1]
  bioavailability: 93.5%
[1]; [6]
  AUC(0-t): 6980 ng·h/mL
  Cmax: 794 ng/mL
  half-life: 3.16 h
[2]
  IC50: 6.4 nM
[3]
  IC50: 9.1 nM
[4]
  IC50: 2.1 nM

## CCOc1cc2ncnc(Nc3ccc(Cl)c(Cl)c3F)c2cc1NC(=O)/C=C/CN1C[C@@H]2OCCO[C@@H]2C1 [Example 32, (E)-N-(4-((3,4-Dichloro-2-fluorophenyl)amino)-7-ethoxyquinazolin-6-yl)-4-((4aR,7aS)-tetrahydro-2H-[1,4]dioxino[2,3-c]pyrrol-6(3H)-yl)but-2-enamide]
[1]; [5]
  AUC(0-t): 2170 ng·h/mL
  Cmax: 1000 ng/mL
  half-life: 2.95 h
  Vd: 2.97 L/kg
[1]
  bioavailability: 108%
[1]; [6]
  AUC(0-t): 6220 ng·h/mL
  Cmax: 748 ng/mL
  half-life: 2.97 h
[2]
  IC50: 4 nM
[3]
  IC50: 7 nM
[4]
  IC50: 1.2 nM

## O=C(/C=C/CN1C[C@@H]2OCCO[C@@H]2C1)Nc1cc2c(Nc3ccc(Cl)c(Cl)c3F)ncnc2cc1O[C@H]1CCOC1 [Example 34, (E)-N-(4-((3,4-Dichloro-2-fluorophenyl)amino)-7-(((S)-tetrahydrofuran-3-yl)oxy)quinazolin-6-yl)-4-((4aR,7aS)-tetrahydro-2H-[1,4]dioxino[2,3-c]pyrrol-6(3H)-yl)but-2-enamide]
[1]; [5]
  AUC(0-t): 951 ng·h/mL
  Cmax: 645 ng/mL
  half-life: 1.15 h
  Vd: 3.18 L/kg
[1]
  bioavailability: 68.7%
[1]; [6]
  AUC(0-t): 1550 ng·h/mL
  Cmax: 378 ng/mL
  half-life: 1.4 h
[2]
  IC50: 7 nM
[3]
  IC50: 20.3 nM
[4]
  IC50: 3.3 nM

From patent US9556191B2, “Aminoquinazoline derivatives and their salts and methods of use thereof” (SUNSHINE LAKE PHARMA CO., LTD, priority 2013, dated 2017)
